What all share (assay type): cell-based
Experiment [1] relates to Human breast cancer cell line HCC38. In words: Cell proliferation inhibition test upon SLFN11 knockdown, HCC38. The conditions noted are these: for Cell proliferation inhibitory effect upon SLFN11 knockdown: HCC38 cell lines, SLFN11 siRNA vs Non-targeting Control; for Fold change (SLFN11/Non-targeting Control): ratio of IC50. As to the method: Human breast cancer cell line HCC38 was obtained from ATCC and used for evaluation. HCC38 cells suspended at 2×10^5 cells/mL in RPMI-1640 medium containing 10% bovine fetal serum were seeded in a 10 cm cell culture dish at 10 mL/dish. Twenty-four hours after seeding, 100 pmol of ON-TARGETplus SLFN11 siRNA (Dharmacon Inc.) or ON-TARGETplus Non-targeting Control Pool (Dharmacon Inc.) and 30 μL of Lipofectamine™ RNAiMAX Transfection Reagent (Thermo Fisher Scientific Inc.) were suspended in 1 mL of Opti-MEM medium, and the entire amount of the suspension was added to the medium. After 72 hours, the medium was removed and the dish was washed with PBS, then the cells were dissociated and recovered from the dish using 1 mL of TrypLE™ Express. The recovered cells were suspended at 5×10^4 cells/mL in RPMI-1640 medium containing 10% bovine fetal serum, and seeded in a 96-well cell culture plate at 100 μL/well. Twenty-four hours after seeding, the medium was replaced with a medium containing 100 nM, 33 nM, 11 nM, 3.7 nM, 1.2 nM, 0.41 nM, 0.13 nM, 0.045 nM, or 0 nM of compound (1) or antibody-drug conjugate (1) at 100 μL/well. The molar concentration of antibody-drug conjugate (1) was calculated by setting the average molecular weight to 150,000. Cells were all cultured at 37° C. under 5% CO2. After 72 hours from the medium replacement, ATPlite 1 step detection system (PerkinElmer Inc.) was added at 100 μL/well. The wells were incubated at room temperature for 10 minutes, then the luminescence intensity of each well was measured.
(§1) The cell growth inhibition rate (%) at each condition was calculated using the following calculation formula: Cell growth inhibition rate (%)=100×(1−T/C) • T: Average luminescence intensity of each well to which specimen was added • C: Average luminescence intensity of each well to which 0 nM specimen was added
The 50% inhibitory concentration at each condition was calculated by fitting to the following calculation formula: Cell viability (%)=(Emax−Emin)×Specimen concentration^γ/((max−50)/(50−Emin)×IC50^γ+Specimen concentration^γ)+Emin • Emax: maximum cell growth inhibition rate (%) • Emin: minimum cell growth inhibition rate (%) • IC50: 50% inhibitory concentration • γ: Hill coefficient
(§2) The fitting to the calculation formula was performed using SAS Systems Release 9.2 (SAS Institute Inc.).

Experiment [2] relates to Human lung cancer cell line Calu-3. Kind of experiment: Cell proliferation inhibition test upon SLFN11 knockdown, Calu-3. As to the method:
Human lung cancer cell line Calu-3 was obtained from ATCC and used for evaluation. Calu-3 cells suspended at 2×10^3 cells/mL in a MEM medium containing a non-essential amino acid solution, a pyruvic acid solution and 10% bovine fetal serum were seeded in a 10 cm cell culture dish at 10 mL/dish. Twenty-four hours after seeding, 100 pmol of ON-TARGETplus SLFN11 siRNA (Dharmacon Inc.) or ON-TARGETplus Non-targeting Control Pool (Dharmacon Inc.) and 30 μL of Lipofectamine™ RNAiMAX Transfection Reagent (Thermo Fisher Scientific Inc.) were suspended in 1 mL of Opti-MEM medium, and the entire amount of the suspension was added to the medium. After 72 hours, the medium was removed and the dish was washed with PBS, then the cells were dissociated and recovered from the dish using 1 mL of TrypLE™ Express. The recovered cells were suspended at 5×10^4 cells/mL in a MEM medium containing a non-essential amino acid solution, a pyruvic acid solution and 10% bovine fetal serum, and seeded in a 96-well cell culture plate at 100 μL/well. Twenty-four hours after seeding, the medium was replaced with a medium containing 100 nM, 33 nM, 11 nM, 3.7 nM, 1.2 nM, 0.41 nM, 0.13 nM, 0.045 nM, or 0 nM of compound (1) or antibody-drug conjugate (1) at 100 μL/well. The molar concentration of antibody-drug conjugate (1) was calculated by setting the average molecular weight to 150,000. Cells were all cultured at 37° C. under 5% CO2. After 72 hours from the medium replacement, ATPlite 1 step detection system (PerkinElmer Inc.) was added at 100 μL/well. The wells were incubated at room temperature for 10 minutes, then the luminescence intensity of each well was measured.
as §1
(§3) The 50% inhibitory concentration at each condition was calculated by fitting to the following calculation formula: Cell viability (%)=(Emax−Emin)×Specimen concentration^γ/((Emax−50)/(50−Emin)×IC50^γ+Specimen concentration^γ)+Emin • Emax: maximum cell growth inhibition rate (%) • Emin: minimum cell growth inhibition rate (%) • IC50: 50% inhibitory concentration • γ: Hill coefficient
as §2

The subject of experiment [3] is Human pharyngeal cancer cell line FaDu. In words: Cell proliferation inhibition test upon SLFN11 knockdown, FaDu. Conditions: for Cell proliferation inhibitory effect upon SLFN11 knockdown: FaDu cell lines, SLFN11 siRNA vs Non-targeting Control; for Fold change (SLFN11/Non-targeting Control): ratio of IC50. As to the method:
Human pharyngeal cancer cell line FaDu was obtained from ATCC and used for evaluation. FaDu cells suspended at 2×10^3 cells/mL in a MEM medium containing a non-essential amino acid solution, a pyruvic acid solution and 10% bovine fetal serum were seeded in a 10 cm cell culture dish at 10 mL/dish. Twenty-four hours after seeding, 100 pmol of ON-TARGETplus SLFN11 siRNA (Dharmacon Inc.) or ON-TARGETplus Non-targeting Control Pool (Dharmacon Inc.) and 30 μL of Lipofectamine™ RNAiMAX Transfection Reagent (Thermo Fisher Scientific Inc.) were suspended in 1 mL of Opti-MEM medium, and the entire amount of the suspension was added to the medium. After 72 hours, the medium was removed and the dish was washed with PBS, then the cells were dissociated and recovered from the dish using 1 mL of TrypLE™ Express. The recovered cells were suspended at 5×10^4 cells/mL in a MEM medium containing a non-essential amino acid solution, a pyruvic acid solution and 10% bovine fetal serum, and were seeded in a 96-well cell culture plate at 100 μL/well. Twenty-four hours after seeding, the medium was replaced with a medium containing 100 nM, 33 nM, 11 nM, 3.7 nM, 1.2 nM, 0.41 nM, 0.13 nM, 0.045 nM, or 0 nM of compound (1) or antibody-drug conjugate (1) at 100 μL/well. The molar concentration of antibody-drug conjugate (1) was calculated by setting the average molecular weight to 150,000. Cells were all cultured at 37° C. under 5% CO2. After 72 hours from the medium replacement, ATPlite 1 step detection system (PerkinElmer Inc.) was added at 100 μL/well. The wells were incubated at room temperature for 10 minutes, then the luminescence intensity of each well was measured.
The cell growth inhibition rate(%) at each condition was calculated using the following calculation formula: Cell growth inhibition rate (%)=100×(1−T/C) • T: Average luminescence intensity of each well to which specimen was added • C: Average luminescence intensity of each well to which 0 nM specimen was added
as §3, §2

Where two headings read alike, the source gives them in different places. Bounds are passed on as bounds.

Broadly, the IC50 is the concentration that gives 50% inhibition.

Consider `CC[C@@]1(O)C(=O)OCc2c1cc1n(c2=O)Cc2c-1nc1cc(F)c(C)c3c1c2[C@@H](NC(=O)CO)CC3` [Compound (1)], for which the “Cell proliferation inhibitory effect upon SLFN11 knockdown” value is listed as “attenuated by SLFN11 knockdown” in experiment [1]; “attenuated by SLFN11 knockdown” in experiment [2] (Calu-3 cell lines, SLFN11 siRNA vs Non-targeting Control); “attenuated by SLFN11 knockdown” in experiment [3]. Moreover, the “Fold change (SLFN11/Non-targeting Control)” value in experiment [1] (HCC38 cells) is reported as 2.6; in experiment [2] (Calu-3 cells, ratio of IC50), above 4.8; in experiment [3] (FaDu cells), 8.6. For the same molecule, the IC50 in experiment [1] (Homo sapiens, HCC38, 72 h, read-out: IC50 (nM) Non-targeting Control Pool) was 1.6 nM; in experiment [1] (Homo sapiens, HCC38, 72 h, read-out: IC50 (nM) SLFN11 siRNA), 4.2 nM; in experiment [2] (Homo sapiens, Calu-3, 72 h, read-out: IC50 (nM) Non-targeting Control Pool), 20.9 nM; in experiment [2] (Homo sapiens, Calu-3, 72 h, read-out: IC50 (nM) SLFN11 siRNA), above 100 nM; in experiment [3] (Homo sapiens, FaDu, 72 h, read-out: IC50 (nM) Non-targeting Control Pool), 3.6 nM; in experiment [3] (Homo sapiens, FaDu, 72 h, read-out: IC50 (nM) SLFN11 siRNA), 30.8 nM.

B1: antibody-drug conjugate (1): humanized anti-hTROP2 antibody (SEQ ID NO: 1 residues 20-470, SEQ ID NO: 2 residues 21-234) conjugated to the exatecan-derivative drug-linker via a thioether bond (conjugate, chains of the INN, looked up)
VH: QVQLVQSGAEVKKPGASVKVSCKASGYTFTTAGMQWVRQAPGQGLEWMGWINTHSGVPKYAEDFKGRVTISADTSTSTAYLQLSSLKSEDTAVYYCARSGFGSSYWYFDVWGQGTLVTVSS
VL: DIQMTQSPSSLSASVGDRVTITCKASQDVSTAVAWYQQKPGKAPKLLIYSASYRYTGVPSRFSGSGSGTDFTLTISSLQPEDFAVYYCQQHYITPLTFGQGTKLEIK
modifications: exatecan-derivative drug-linker
On to B1, for which the “Cell proliferation inhibitory effect upon SLFN11 knockdown” value in experiment [1] and in experiment [3] was “attenuated by SLFN11 knockdown” throughout. The IC50 is 56.7 nM in experiment [1] (HCC38 cells, Non-targeting Control Pool, 72 hours, ATPlite, read-out: IC50 (nM) Non-targeting Control Pool); above 100 nM in experiment [1] (HCC38 cells, SLFN11 siRNA knockdown, 72 hours, ATPlite, read-out: IC50 (nM) SLFN11 siRNA); above 100 nM in experiment [2] (Calu-3 cells, Non-targeting Control Pool, 72 hours, ATPlite, read-out: IC50 (nM) Non-targeting Control Pool); above 100 nM in experiment [2] (Calu-3 cells, SLFN11 siRNA knockdown, 72 hours, ATPlite, read-out: IC50 (nM) SLFN11 siRNA); 42.6 nM in experiment [3] (FaDu cells, Non-targeting Control Pool, 72 hours, ATPlite, read-out: IC50 (nM) Non-targeting Control Pool); above 100 nM in experiment [3] (FaDu cells, SLFN11 siRNA knockdown, 72 hours, ATPlite, read-out: IC50 (nM) SLFN11 siRNA). Also, the figures for the “Fold change (SLFN11/Non-targeting Control)” value in experiment [1] (HCC38 cells) and in experiment [3] (FaDu cells) were above 1.8 and above 2.3, respectively.

These data come from US12312641B2, “Sensitivity marker for antibody-drug conjugate” (priority 2018, dated 2025).
